Assay [1] deals with T1, Acetylcholinesterase (Homo sapiens, UniProt P22303). In words: Inhibition of AChE by Ellman's assay. In general terms: DTNB colorimetry detects thiols as they appear.
Assay [2] concerns the target T1, Acetylcholinesterase. In words: Inhibition of AChE at 10 uM by Ellman's assay.

T1 sequence (P22303 whole entry): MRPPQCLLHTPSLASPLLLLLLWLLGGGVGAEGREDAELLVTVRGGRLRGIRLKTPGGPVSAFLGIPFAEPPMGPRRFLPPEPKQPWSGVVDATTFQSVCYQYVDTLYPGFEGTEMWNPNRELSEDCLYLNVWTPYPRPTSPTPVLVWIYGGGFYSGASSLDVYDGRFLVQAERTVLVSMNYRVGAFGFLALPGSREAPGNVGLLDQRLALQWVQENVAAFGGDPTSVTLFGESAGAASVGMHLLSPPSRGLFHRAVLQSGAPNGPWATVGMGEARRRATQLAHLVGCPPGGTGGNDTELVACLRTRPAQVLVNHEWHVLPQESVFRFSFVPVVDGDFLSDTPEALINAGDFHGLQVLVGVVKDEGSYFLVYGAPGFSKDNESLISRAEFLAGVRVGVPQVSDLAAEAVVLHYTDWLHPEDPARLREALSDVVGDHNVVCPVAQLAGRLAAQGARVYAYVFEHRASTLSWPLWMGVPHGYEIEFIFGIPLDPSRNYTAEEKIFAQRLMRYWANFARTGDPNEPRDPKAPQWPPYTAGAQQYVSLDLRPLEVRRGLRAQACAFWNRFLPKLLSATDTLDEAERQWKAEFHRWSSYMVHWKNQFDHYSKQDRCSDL

A word on the Ki: it is a measure of affinity in units of concentration, obtained from inhibition or displacement. At Acetylcholinesterase [1], `CC(C)(C)[Si](C)(C)O[C@H]1C=C2CCN3Cc4cc5c(cc4[C@H]([C@@H]1OC(=O)c1ccccc1)[C@@H]23)OCO5` displayed a Ki of 390 nM.

As for `O=C(O[C@H]1[C@H]2c3cc4c(cc3CN3CCC(=C[C@@H]1O)[C@H]23)OCO4)c1ccccc1`, the Ki at Acetylcholinesterase [1] is 540 nM.

In turn, `CC(=O)O[C@H]1C=C2CCN3Cc4cc5c(cc4[C@H]([C@@H]1OC(=O)c1ccccc1)[C@@H]23)OCO5` gave a Ki on Acetylcholinesterase [1] of 970 nM.

In turn, `CC(=O)O[C@H]1[C@H]2c3cc4c(cc3CN3CCC(=C[C@@H]1O)[C@H]23)OCO4` came in with an inhibitory constant (Ki) on Acetylcholinesterase [1] of 430 nM.

Take `CC(=O)O[C@H]1[C@H]2c3cc4c(cc3CN3CCC(=C[C@@H]1OC(C)=O)[C@H]23)OCO4`: the Ki entry on Acetylcholinesterase [2] is reported as “Not Active”.

On to `CO[C@H]1C=C[C@@]23c4cc5c(cc4CN(C[C@@H]2O)[C@H]3C1)OCO5`, for which the Ki result at Acetylcholinesterase [2] was “Not Active”.

Compound `CC(C)(C)[Si](C)(C)O[C@H]1C=C2CCN3Cc4cc5c(cc4[C@H]([C@@H]1O)[C@@H]23)OCO5` came in with a Ki on Acetylcholinesterase [1] of 860 nM.

Take `CC(=O)O[C@H]1[C@H]2c3cc4c(cc3CN3CCC(=C[C@@H]1O[Si](C)(C)C(C)(C)C)[C@H]23)OCO4`: the Ki on Acetylcholinesterase [1] was 340 nM.

Regarding `O[C@H]1C=C[C@@]23CCN(Cc4cc5c(cc42)OCO5)[C@@H]3C1` [CRININE], the Ki entry on Acetylcholinesterase [2] is given as “Not Active”.

Turning to `COc1cc2c(cc1OC)[C@H]1[C@H]3C(=CC[C@H]1OC2=O)CCN3C` [HOMOLYCORINE], the Ki entry at Acetylcholinesterase [2] is given as “Not Active”.

As to `O[C@H]1[C@H]2c3cc4c(cc3CN3CCC(=C[C@@H]1O)[C@H]23)OCO4` [LYCORINE], the Ki entry at Acetylcholinesterase [2] is on record as “Not Active”.

For the compound `CO[C@H]1C=C2[C@H]3CN(Cc4cc5c(cc43)OCO5)[C@H]2C[C@@H]1O` [MONTANINE], the inhibition constant (Ki) entry on Acetylcholinesterase [2] is “Not Active”.

Turning to `COc1cc2c(cc1O)[C@@H]1[C@H](O)[C@@H](O)C=C3CCN(C2)[C@H]31` [PSEUDOLYCORINE], the inhibitory constant (Ki) result at Acetylcholinesterase [2] is reported as “Not Active”.

Turning to `CO[C@@H]1C=C[C@@]23c4cc5c(cc4CO[C@]2(O)CN(C)[C@H]3C1)OCO5` [TAZETTINE], at Acetylcholinesterase [2], the inhibition constant Ki entry is reported as “Not Active”.

(Values after ChEMBL document CHEMBL1221246, “Structure-activity studies on acetylcholinesterase inhibition in the lycorine series of Amaryllidaceae alkaloids” (Bioorg Med Chem Lett, 2010).)
